Measurements as given in patent publication US7446195B2, “High affinity thiophene-based and furan-based kinase ligands” (Schering Corporation, priority 2005, dated 2008).

These compounds were tested against CDK-2 (Homo sapiens, UniProt P24941) (assay: CDK-2 inhibition (Table 1; fluorescence polarization displacement assay)). Conditions: inhibitory effectiveness toward CDK-2.
Assay type: binding
Outline: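 Ki was measured by fluorescence polarization displacement of 50 nM BMS-Alexa Fluor647 tracer from CDK-2 ([…]) or CDK-2/cyclin A ([…]). Buffer was 10 mM Hepes pH 7.5, 150 mM NaCl, 1 mM DTT, with 15 min incubation at room temperature and read at ex 580/em 680 nm. Ki came from nonlinear regression of the displacement curves.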

IC50, ≥ 40 µM:
COc1ccc(NC(=O)c2ccc(C(=O)Nc3ccc(-n4cncn4)cc3)s2)cc1O [Compound 167]
COc1ccc(NC(=O)c2ccc(C(=O)Nc3ccc(-c4c(C)noc4C)cc3)s2)c(C)c1 [Compound 168]
COc1ccc(NC(=O)c2ccc(C(=O)Nc3ccc4ncccc4c3)s2)c(C)c1 [Compound 169]
COc1ccc(NC(=O)c2ccc(C(=O)Nc3ccc4nc(C)ccc4c3)s2)c(C)c1 [Compound 170]
COc1ccc(NC(=O)c2ccc(C(=O)Nc3ccc4c(cnn4C)c3)s2)c(C)c1 [Compound 171]
COc1ccc(NC(=O)c2ccc(C(=O)Nc3ccc4nccnc4c3)s2)c(C)c1 [Compound 172]
COc1ccc(NC(=O)c2ccc(C(=O)Nc3ccc4scnc4c3)s2)c(C)c1 [Compound 173]
COc1ccc(NC(=O)c2ccc(C(=O)Nc3ccc4sc(SC)nc4c3)s2)c(C)c1 [Compound 174]
COc1ccc(NC(=O)c2ccc(C(=O)Nc3ccc(C#N)cc3)s2)c(C)c1 [Compound 175]
COc1ccc(NC(=O)c2ccc(C(=O)Nc3ccc(C(N)=O)cc3)s2)c(C)c1 [Compound 176]
COc1ccc(NC(=O)c2ccc(C(=O)Nc3ccc(Cn4ccnc4)cc3)s2)c(C)c1 [Compound 177]
COc1ccc(NC(=O)c2ccc(C(=O)Nc3ccc(-c4nnn[nH]4)cc3)s2)c(C)c1 [Compound 178]
COc1ccc(NC(=O)c2ccc(C(=O)Nc3ccc(-c4ncn(C)n4)cc3)s2)c(C)c1 [Compound 179]
COc1ccc(NC(=O)c2ccc(C(=O)Nc3ccc(-n4cncn4)cc3F)s2)c(C)c1 [Compound 180]
COc1ccc(C(=O)Nc2ccc(C(=O)Nc3ccc(-n4cncn4)cc3)o2)cc1 [Compound 181]
COc1ccc(C(=O)Nc2ccc(C(=O)N3CCC(Oc4cnccn4)CC3)o2)cc1 [Compound 182]
O=C(Nc1ccc(C(=O)Nc2ccc(-n3cncn3)cc2)o1)c1ccccc1 [Compound 183]
Cc1ccccc1C(=O)Nc1ccc(C(=O)Nc2ccc(-n3cncn3)cc2)o1 [Compound 184]
O=C(Nc1ccc(C(=O)Nc2ccc(-n3cncn3)cc2)o1)c1ccncc1 [Compound 185]
COc1ccc(C(=O)Nc2ccc(C(=O)Nc3ccc(-n4cncn4)cc3)o2)c(C)c1 [Compound 186]
O=C(Nc1ccc(-n2cncn2)cc1)c1ccc(NC(=O)C2CCCCC2)o1 [Compound 187]
COc1ccc(C(=O)Nc2ccc(C(=O)N3CCC(c4ccccn4)C3)s2)c(C)c1 (centres unmarked) [Compound 188]
COc1ccc(C(=O)Nc2ccc(C(=O)N3CCC(c4ccncc4)C3)s2)c(C)c1 (centres unmarked) [Compound 189]
COc1ccc(C(=O)Nc2ccc(C(=O)N3CCC(c4ccccn4)C3)o2)c(C)c1 (centres unmarked) [Compound 190]
COc1ccc(C(=O)Nc2ccc(C(=O)N3CCC(c4ccncc4)C3)o2)c(C)c1 (centres unmarked) [Compound 191]
COc1ccc(C(=O)Nc2ccc(C(=O)N3CCC(Oc4cnccn4)CC3)o2)c(C)c1 [Compound 192]
COc1ccc(C(=O)Nc2ccc(C(=O)Nc3ccc(-n4ccnc4)cc3)o2)c(C)c1 [Compound 193]
O=C(Nc1ccc(C(=O)Nc2ccc(-n3cncn3)cc2)s1)c1ccncc1 [Compound 194]
Cn1nc(-c2cccs2)cc1NC(=O)c1ccc(C(=O)Nc2ccc(-n3cncn3)cc2)s1 [Compound 195]
Cn1nc(-c2ccc(Cl)cc2)cc1NC(=O)c1ccc(C(=O)Nc2ccc(-n3cncn3)cc2)s1 [Compound 196]
O=C(Nc1ccc(-n2cncn2)cc1)c1ccc(C(=O)Nc2cc(-c3ccco3)n[nH]2)s1 [Compound 197]
COc1ccc(NCc2ccc(C(=O)Nc3ccc(-n4cncn4)cc3)o2)c(C)c1 [Compound 198]
O=C(Nc1ccc(-n2cncn2)c(F)c1)c1ccc(C(=O)Nc2ccccc2Oc2ccccc2)s1 [Compound 199]
O=C(Nc1ccc(-n2cncn2)c(F)c1)c1ccc(C(=O)Nc2ccccc2OCc2ccccc2)s1 [Compound 200]
CCOc1ccccc1NC(=O)c1ccc(C(=O)Nc2ccc(-n3cncn3)c(F)c2)s1 [Compound 201]
O=C(Nc1ccc(-n2cncn2)c(F)c1)c1ccc(C(=O)Nc2ccccc2OCc2ccncc2)s1 [Compound 202]
O=C(Nc1ccc(-n2cncn2)c(F)c1)c1ccc(C(=O)Nc2ccccc2OC2CCCCC2)s1 [Compound 203]
O=C(Nc1ccc(-n2cncn2)c(F)c1)c1ccc(C(=O)Nc2ccccc2COc2ccccc2)s1 [Compound 204]
O=C(Nc1ccc(-n2cncn2)c(F)c1)c1ccc(C(=O)Nc2ccccc2Oc2cccnc2)s1 [Compound 205]
COc1ccccc1NC(=O)c1ccc(C(=O)Nc2ccc(-n3cncn3)c(F)c2)s1 [Compound 206]
O=C(Nc1ccc(-n2cncn2)c(F)c1)c1ccc(C(=O)Nc2ccccc2N2CCOCC2)s1 [Compound 207]
O=C(Nc1ccc(-n2cncn2)c(F)c1)c1ccc(C(=O)Nc2ccccc2-n2cccn2)s1 [Compound 208]
CN1CCN(c2ccccc2NC(=O)c2ccc(C(=O)Nc3ccc(-n4cncn4)c(F)c3)s2)CC1 [Compound 209]
CN1CCC(N(C)C(=O)c2ccc(C(=O)Nc3ccc(-n4cncn4)c(F)c3)o2)CC1 [Compound 210]
O=C(Nc1ccc(-n2cncn2)c(F)c1)c1ccc(C(=O)N2CCOCC2)o1 [Compound 211]
CN(C)CCNC(=O)c1ccc(C(=O)Nc2ccc(-n3cncn3)c(F)c2)o1 [Compound 212]
CN(C(=O)c1ccc(C(=O)Nc2ccc(-n3cncn3)c(F)c2)o1)C1CCCCC1 [Compound 213]
CN1CCC(NC(=O)c2ccc(C(=O)Nc3ccc(-n4cncn4)c(F)c3)o2)CC1 [Compound 214]
CNC(=O)c1ccc(C(=O)Nc2ccc(-n3cncn3)c(F)c2)o1 [Compound 215]
CN(C)C(=O)c1ccc(C(=O)Nc2ccc(-n3cncn3)c(F)c2)o1 [Compound 216]
